Source: patent publication US8426447B2, “Spiro-tricyclic ring compounds as beta-secretase modulators and methods of use” (Amgen Inc., priority 2008, dated 2013)
Each block holds one compound with its values, some of them ahead of it.

Columns and labels:
[1] = target: T1, BACE1 (Homo sapiens, UniProt P56817); assay: In Vitro Enzymatic BACE FRET (Fluorescence Resonance Energy Transfer) Assay; format: biochemical; details: read-out: BACE1 FRET assay
In short: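 One-hour incubation initiated by 50 nM quenched FRET peptide spanning the BACE cleavage site, in 0.05 M acetate (pH 4.2), 100 uM genapol, 10% DMSO final. Tris addition neutralizes pH to end the reaction before fluorescence measurement.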

[2] = target: T1, BACE1; assay: In Vitro BACE Cell-based Assay (HEK cell assay): Aβ40 in conditioned medium of cells stably expressing Amyloid Precursor Protein, sandwich ELISA; details: read-out: HEK cell assay
In short: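 APP-expressing cells were cultured 24 h in DMEM/10% FBS, then treated 24 h with compounds in 10-point dose response (top 100 μM or 10 μM; 0.1% DMSO final). Secreted Aβ40 was quantified by sandwich ELISA (pAb40 capture, biotinylated 6E10 detection, Europium TRF); IC50 from percent inhibition versus concentration.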

T1 sequence (P56817 46-501, species assumed): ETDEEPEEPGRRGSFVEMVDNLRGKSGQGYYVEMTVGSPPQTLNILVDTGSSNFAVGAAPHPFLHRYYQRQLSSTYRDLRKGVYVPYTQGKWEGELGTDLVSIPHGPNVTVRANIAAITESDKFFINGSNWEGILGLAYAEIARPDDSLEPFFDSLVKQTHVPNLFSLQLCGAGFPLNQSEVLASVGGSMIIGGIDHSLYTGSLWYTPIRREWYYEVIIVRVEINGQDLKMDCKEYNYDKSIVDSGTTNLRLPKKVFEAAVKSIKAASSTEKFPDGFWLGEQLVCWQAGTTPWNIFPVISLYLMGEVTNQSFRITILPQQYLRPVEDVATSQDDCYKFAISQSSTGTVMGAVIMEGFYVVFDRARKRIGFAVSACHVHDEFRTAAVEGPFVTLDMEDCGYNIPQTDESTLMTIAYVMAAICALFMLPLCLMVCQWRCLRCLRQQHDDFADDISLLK

IC50 [1]: < 0.1 µM
IC50 [2]: < 0.1 µM
SMILES: NC1=N[C@@]2(CO1)c1cc(-c3cccnc3)ccc1Oc1ccc(-c3nccs3)cc12 [compound 666]

IC50 ([1]; Table 1): 1 to 5 µM
IC50 ([2]; Table 1, Aβ40, 24 h incubation): > 5 µM
SMILES: COc1ccc2c(c1)C1(COC(N)=N1)c1cc(-c3cccc(Cl)c3F)ccc1O2 (stereo not drawn) [Example 18, 2′-(3-chloro-2-fluorophenyl)-7′-methoxyspiro[1,3-oxazole-4,9′-xanthen]-2-amine]

IC50 ([1]; Table III, IC50's in uM ranges): < 0.1 µM
IC50 ([2]; Table III, IC50's in uM ranges): < 0.1 µM
SMILES: COC(C)(C)COc1ccc2c(c1)[C@]1(COC(N)=N1)c1cc(-c3cccnc3)ccc1O2 [compound 149]

IC50 [1]: < 0.1 µM
IC50 ([2]; HEK cells): < 0.1 µM
SMILES: N#Cc1ccc(-c2cnc3c(c2)[C@]2(COC(N)=N2)c2cc(-c4cncnc4)ccc2O3)cc1 [compound 473]

IC50 [1]: < 0.1 µM
IC50 [2]: 0.1 to 1 µM
SMILES: COc1ccc(-c2ccc3c(c2)[C@]2(COC(N)=N2)c2cc(-c4cccnc4)ccc2O3)o1 [compound 711]

IC50 ([1]; Table IV, class symbols): 0.1 to 1 µM
IC50 ([2]; Table IV, class symbols): < 0.1 µM
SMILES: CN(C)CCOc1ccc2c(c1)[C@]1(COC(N)=N1)c1cc(-c3cccnc3)ccc1O2 [compound 886]

IC50 [1]: < 0.1 µM
IC50 [2]: 1 to 5 µM
SMILES: CSc1ccc(-c2ccc3c(c2)[C@]2(COC(N)=N2)c2cc(OCC(C)(C)C)ccc2O3)cc1 [compound 787]

IC50 [1]: < 0.1 µM
IC50 [2]: < 0.1 µM
SMILES: NC1=N[C@]2(CO1)c1cc(OCC3CCOCC3)ccc1Oc1ccc(-c3cccnc3)cc12 [compound 933]

IC50 [1]: 0.1 to 1 µM
IC50 [2]: 0.1 to 1 µM
SMILES: NC1=NC2(CO1)c1cc(C3=CCOCC3)ccc1Oc1ccc(C3=CCOCC3)cc12 [compound 757]

IC50 ([1]; Table IV, class symbols): 0.1 to 1 µM
IC50 ([2]; Table IV, class symbols): 1 to 5 µM
SMILES: CC(C)(C)COc1ccc2c(c1)[C@]1(COC(N)=N1)c1cc(C(C)(C)O)ccc1O2 [compound 827]

IC50 ([1]; Table III, IC50's in uM ranges): < 0.1 µM
IC50 ([2]; Table III, IC50's in uM ranges): < 0.1 µM
SMILES: CC(C)(C)CCc1ccc2c(c1)[C@@]1(COC(N)=N1)c1cc(-c3cccnc3)cnc1O2 [compound 161]

IC50 ([1]; Table IV, class symbols): > 5 µM
IC50 ([2]; Table IV, class symbols): > 5 µM
SMILES: COc1cnc2c(c1)[C@@]1(COC(N)=N1)c1cc(Br)ccc1O2 [compound 543]

IC50 ([1]; Table III, IC50's in uM ranges): < 0.1 µM
IC50 ([2]; Table III, IC50's in uM ranges): < 0.1 µM
SMILES: COC(C)(C)C#Cc1ccc2c(c1)[C@]1(COC(N)=N1)c1cc(-c3cccnc3)cnc1O2 [208b]

IC50 ([1]; Table 1): 0.1 to 1 µM
IC50 ([2]; Table 1, Aβ40, 24 h incubation): 1 to 5 µM
SMILES: COc1ccc2c(c1)[C@]1(COC(N)=N1)c1cc(-c3cncnc3)ccc1O2 [Example 10, (4S)-2′-methoxy-7′-(5-pyrimidinyl)spiro[1,3-oxazole-4,9′-xanthen]-2-amine]

IC50 ([1]; Table IV, class symbols): 1 to 5 µM
IC50 ([2]; Table IV, class symbols): 0.1 to 1 µM
SMILES: NC1=N[C@@]2(CO1)c1ccccc1Oc1ccc(-c3cc(F)cnc3Cl)cc12 [compound 619]

IC50 [1]: 0.1 to 1 µM
IC50 [2]: 1 to 5 µM
SMILES: NC1=N[C@@]2(CO1)c1cc(-c3cccnc3)ccc1Oc1cnc(Cl)cc12 [compound 676]

IC50 ([1]; Table IV, class symbols): < 0.1 µM
IC50 ([2]; Table IV, class symbols): < 0.1 µM
SMILES: COC(C)(C)COc1cc2c(cc1F)Oc1ccc(-c3cccnc3)cc1[C@@]21COC(N)=N1 [compound 544]

IC50 [1]: 0.1 to 1 µM
IC50 [2]: 1 to 5 µM
SMILES: CC(C)(C)COc1ccc2c(c1)[C@]1(COC(N)=N1)c1cc(C3=CCCC3)ccc1O2 [compound 731]

IC50 ([1]; Table III, IC50's in uM ranges): < 0.1 µM
IC50 ([2]; Table III, IC50's in uM ranges): < 0.1 µM
SMILES: CC(C)(F)COc1ccc2c(c1)[C@]1(COC(N)=N1)c1cc(-c3cccnc3)ccc1O2 [compound 148]

IC50 ([1]; Table IV, class symbols): 1 to 5 µM
IC50 ([2]; Table IV, class symbols): > 5 µM
SMILES: NC1=N[C@]2(CO1)c1ccccc1Oc1ccc(-c3cncc4ccccc34)cc12 [compound 629]

IC50 [1]: 0.1 to 1 µM
IC50 [2]: 1 to 5 µM
SMILES: COC(C)(C)C#Cc1cc(F)c2c(c1)[C@@]1(COC(N)=N1)c1cc(-c3cncnc3)ccc1O2 [compound 674]

IC50 ([1]; Table IV, class symbols): < 0.1 µM
IC50 ([2]; Table IV, class symbols): 0.1 to 1 µM
SMILES: NC1=N[C@]2(CO1)c1cc(C(=O)CCCO)ccc1Oc1ccc(-c3cccnc3)cc12 [compound 650]

IC50 ([1]; Table 1): > 5 µM
IC50 ([2]; Table 1, Aβ40, 24 h incubation): 1 to 5 µM
SMILES: COc1ccc2c(c1)C1(COC(N)=N1)c1cc(-c3ccccc3Cl)ccc1O2 (stereo not drawn) [Example 28, 2′-(2-chlorophenyl)-7′-methoxyspiro[1,3-oxazole-4,9′-xanthen]-2-amine]

IC50 [1]: 0.1 to 1 µM
IC50 [2]: 0.1 to 1 µM
SMILES: NC1=N[C@]2(CO1)c1cc(OC3COC3)ccc1Oc1ccc(-c3cncnc3)cc12 [compound 776]

IC50 ([1]; in vitro BACE FRET enzyme assay, IC50 class symbols): < 0.1 µM
IC50 ([2]; HEK cell-based assay, Aβ40 in conditioned medium, IC50 class symbols): < 0.1 µM
SMILES: COc1cncc(-c2ccc3c(c2)[C@@]2(COC(N)=N2)c2cc(OCC(C)(C)C)cnc2O3)c1 [compound 383]

IC50 ([1]; Table IV, class symbols): 0.1 to 1 µM
IC50 ([2]; Table IV, class symbols): 1 to 5 µM
SMILES: COc1ccc2c(c1)[C@]1(COC(N)=N1)c1cc(-c3cccc4cnccc34)ccc1O2 [compound 588]

IC50 ([1]; Table III, IC50's in uM ranges): 0.1 to 1 µM
IC50 ([2]; Table III, IC50's in uM ranges): 0.1 to 1 µM
SMILES: NC1=N[C@]2(CO1)c1cc(Oc3ccccn3)ccc1Oc1ccc(-c3cccnc3)cc12 [compound 207]
